Literature values, collected in patent US6462026B1, “Bicyclic leucomycins” (Enanta Pharmaceuticals, Inc., priority 2001, dated 2002).
Read-outs that look alike come from different tables or passages of the source.

How the values were obtained:
[1] = parent compound rokitamycin
[2] = metabolites isolated from urine and plasma of adults given oral josamycin
Gram-negative bacteria = settings: relative to leucomycin A5, josamycin and midecamycin
[3] = dogs; compared with other 3″-O-acyl derivatives of leucomycin A5
[4] = monkeys; compared with other 3″-O-acyl derivatives of leucomycin A5

4″-debutyryl leucomycin A5 [Lecomycin V]
in vitro potency relative to the parent compound [1]: one-tenth

5-hydroxyjosamycin
antimicrobial activity [2]: poor antimicrobial activity

CCC(=O)O[C@H]1[C@H](C)O[C@@H](O[C@H]2[C@H](N(C)C)[C@@H](O)[C@H](O[C@H]3[C@@H](CC=O)C[C@@H](C)[C@@H](O)/C=C/C=C/C[C@@H](C)OC(=O)C[C@@H](O)[C@@H]3OC)O[C@@H]2C)C[C@@]1(C)O [Leucomycin A7]
in vitro potency relative to the parent compound [1]: one-half

COC1C(O)CC(=O)OC(C)CC=CC=CC(=O)C(C)CC(CC=O)C1OC1OC(C)C(OC2CC(C)(O)C(OC(=O)CC(C)C)C(C)O2)C(N(C)C)C1O (centres unmarked) [Niddamycin]
antibacterial activity in vitro (Gram-positive bacteria): good antibacterial activity | antibacterial activity in vitro (Mycoplasma spp.): good antibacterial activity

COC1C(OC(C)=O)CC(=O)OC(C)CC=CC=CC(O)C(C)CC(CC=O)C1OC1OC(C)C(OC2CC(C)(O)C(O)C(C)O2)C(N(C)C)C1O (centres unmarked) [desisovaleryl josamycin]
antimicrobial activity [2]: inactive

CCCC(=O)O[C@H]1[C@H](C)O[C@@H](O[C@H]2[C@H](N(C)C)[C@@H](O)[C@H](O[C@H]3[C@@H](CC=O)C[C@@H](C)[C@@H](O)/C=C/C=C/C[C@@H](C)OC(=O)C[C@@H](O)[C@@H]3OC)O[C@@H]2C)C[C@@]1(C)OC(=O)CC [rokitamycin, 3″-O-propionyl leucomycin A5]
in vitro activity against Gram-negative bacteria (Gram-negative bacteria): twice as high | serum levels [3]: highest serum levels | serum levels [4]: highest serum levels

demycarosyl josamycin
antimicrobial activity [2]: inactive

β-hydroxyisovaleryl josamycin
antimicrobial activity [2]: poor antimicrobial activity
